The subject of this test is CN0375-F725-PDC multi-cell spheroids, viability. Briefly: Anticancer human tumor CN0375-F725-PDC patient-derived colon carcinoma cell line growth inhibition [TAK]. To be noted: for viability, T/C: stronger effect = lower value. From the text:
Combinatorial screen of targeted agents with TAK-243 and ipatasertib in multi-cell type tumor spheroids
A high-throughput screen of multi-cell type tumor spheroids was designed to identify active combinations of targeted small molecules and TAK-243 or ipatasertib. Complex spheroids include a stromal component modeled by human endothelial cells (HUVEC) and fibroblasts modeled by human mesenchymal stem cells (MSCs). The concentration ranges selected for each drug and investigational agent were based upon clinically achievable concentrations if the clinical Cmax of the agent was known.
Compounds. The drugs and investigational agents: TAK-243 (785004), ipatasertib (767898), everolimus (733504), selumetinib (741078), bortezomib (756655), trametinib (758246), ixazomib (758254), vemurafenib (761431), dabrafenib (764134), sapanisertib (764658), alpelisib (765974), and copanlisib (816437), were obtained from the National Cancer Institute (NCI) Developmental Therapeutics Program Chemical Repository. The FDA-approved anticancer drug set is available from the NCI Developmental Therapeutics Program. […] The stock solutions were prepared in dimethyl sulfoxide (DMSO, Sigma-Aldrich, St. Louis, MO, cat. D2650) at 800-fold the tested concentration and stored at -70 degrees C prior to their use. All drugs and investigational agents were tested over a range starting from a high concentration at or near the clinical Cmax and decreasing in half-log increments. If the clinical Cmax for an agent had not been determined, the highest concentration tested was 10 microM.
NCI60 Cell Culture. NCI60 cell lines were obtained from the NCI Developmental Therapeutics Program Tumor Repository. For each lot of cells, the Repository performed Applied Biosystems AmpFLSTR Identifiler testing with PCR amplification to confirm consistency with the published Identifier STR profile for each cell line. Cells were kept in continuous culture for no more than 20 passages. The optimal seeding densities for each of the cell lines at each time point assessed were determined prior to performing the concentration response studies. Briefly, the NCI60 human tumor lines were grown as monolayers in RPMI 1640 medium supplemented with 10% FBS and 2 mmol/L L-glutamine.
An additional 2 lines were from the NCI60 cell line panel including melanomas, MALME-3M and SK-MEL-2. Pooled donor human umbilical vein endothelial cells (HUVEC, Lonza, cat. CC-2519) and human mesenchymal stem cells (hMSC, Lonza, cat. PT-2501) were purchased from Lonza (Walkersville, MD).
PDMR cell lines were grown in complete medium (DC medium): Dulbecco's modified Eagle's medium (DMEM)/F12 supplemented with 5% fetal bovine serum (FBS), 2 mM L-glutamine, 100 U/mL penicillin and 100 µg/ml streptomycin, 0.4 µg/ml hydrocortisone, 10 ng/ml epidermal growth factor (EGF) recombinant human protein, 24 µg/mL adenine, and 0.1 mg/mL primocin. During culture from frozen stock vials, PDMR cells were cultured in the same medium containing 10 µM Y-27632 (see Table 3). The PDCs were cultured in complete DMEM/F12 media without 10 microM Y-27632 dihydrochloride for at least two passages prior to the screen. The pooled donor HUVEC and hMSC were cultured in endothelial cell growth medium 2 (PromoCell, Heidelberg, Germany, cat. C-22011) and mesenchymal stem cell growth medium 2 (PromoCell, cat. C-28009), respectively. For all experiments, HUVEC and hMSC were used at passages </=5.
For the pre-screen, cell seeding densities were determined from a titration spanning the range from 5,000 to 313 cells per well. The mct-spheroids including 60% malignant cells, 25% HUVEC and 15% MSC dispensed as a mixture into U-bottom Ultra-Low Attachment 384-well plates (Corning, NY)
High-throughput Drug Combination Screening.
Prior to their inoculation into 384-well plates, malignant cells, HUVEC, and hMSC were removed from T flasks using TrypLE express (Thermo Fisher Scientific, cat. 12605036) and harvested by centrifugation for 5 min at 233 x g. […]

Molecules are shown by their SMILES. Values joined by “and” are separate entries in the source; they are usually repeats but may differ in a detail not shown here. Equal values may be shown once.
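Note: spheroids exposed to drugs for seven days.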
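Throughout, for viability, T/C: 100% = DMSO vehicle control wells.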

`CC(=O)Nc1cccc(-n2c(=O)n(C3CC3)c(=O)c3c(Nc4ccc(I)cc4F)n(C)c(=O)c(C)c32)c1`: the viability, T/C runs as follows: (compound 94.9 pM) 106% and 100%; (compound 0.0003 µM) 96.5% and 91.6%; (compound 0.000949 µM) 78.1% and 77.9%; (compound 0.003 µM) 67.4% and 64.9%; (compound 0.00949 µM) 52.9% and 52.8%; (compound 0.03 µM) 35.6% and 38.6%. Moreover, the IC50 (curve of compound) was 10.6 nM and 11.2 nM.
For the compound `CC(C)(C)c1nc(-c2cccc(NS(=O)(=O)c3c(F)cccc3F)c2F)c(-c2ccnc(N)n2)s1`, the viability, T/C runs as follows: (compound 0.0316 µM) 126% and 115%; (compound 0.1 µM) 130% and 129%; (compound 0.316 µM) 126% and 133%; (compound 1 µM) 112% and 127%; (compound 3.16 µM) 104% and 119%; (compound 10 µM) 110% and 107%. In addition, under “curve of compound”, the IC50 was greater than 10000 nM.
Consider `CC(C)CC(NC(=O)C(Cc1ccccc1)NC(=O)c1cnccn1)B(O)O` (configuration not stated), for which the viability, T/C was 112% and 110% (compound 31.6 pM); 98.7% and 113% (compound 0.0001 µM); 104% and 103% (compound 0.000316 µM); 109% and 105% (compound 0.001 µM); 103% and 106% (compound 0.00316 µM); 34.9% and 35.3% (compound 0.01 µM). The IC50 (curve of compound) is 7.76 nM and 7.87 nM.
Take `CC(C)CC(NC(=O)CNC(=O)c1cc(Cl)ccc1Cl)B1OC(=O)CC(CC(=O)O)(C(=O)O)O1` (configuration not stated): the viability, T/C runs as follows: (compound 0.000316 µM) 113% and 106%; (compound 0.001 µM) 112% and 104%; (compound 0.00316 µM) 103% and 102%; (compound 0.01 µM) 111% and 109%; (compound 0.0316 µM) 78.3% and 75.7%; (compound 0.1 µM) 23.4% and 22.6%. For the same compound, the IC50 (curve of compound) was 57.2 nM and 55.2 nM.
Consider `CC(C)NCC(C(=O)N1CCN(c2ncnc3c2C(C)CC3O)CC1)c1ccc(Cl)cc1` (configuration not stated), for which the viability, T/C is, setting by setting: (compound 0.3 µM) 97.1% [middle of 10 runs]; (compound 0.949 µM) 93.7% [middle of 10 runs]; (compound 3 µM) 91.4% [middle of 10 runs]; (compound 9.49 µM) 84.7% [middle of 10 runs]; (compound 30 µM) 83.7% [middle of 10 runs]. Further, the IC50 was greater than 30000 nM (compound alone, run of 02/28/2020) and greater than 30000 nM (compound alone, run of 03/19/2020).
As to `CC(C)n1nc(-c2ccc3oc(N)nc3c2)c2c(N)ncnc21`, the viability, T/C is 109% and 106% (compound 0.000316 µM); 105% and 101% (compound 0.001 µM); 91.7% and 93.4% (compound 0.00316 µM); 85.5% and 83.8% (compound 0.01 µM); 73.1% and 76.7% (compound 0.0316 µM); 58.9% and 61.4% (compound 0.1 µM). Further, the IC50 (curve of compound) is greater than 100 nM.
In the case of `CCCS(=O)(=O)Nc1ccc(F)c(C(=O)c2c[nH]c3ncc(-c4ccc(Cl)cc4)cc23)c1F`, the viability, T/C runs as follows: (compound 0.316 µM) 113% and 115%; (compound 1 µM) 122%; (compound 3.16 µM) 114% and 109%; (compound 10 µM) 75.1% and 65.5%; (compound 31.6 µM) 118% and 111%; (compound 100 µM) 101% and 111%. For the same compound, the IC50 (curve of compound) is greater than 100000 nM.
Turning to `COC1CC2CCC(C)C(O)(O2)C(=O)C(=O)N2CCCCC2C(=O)OC(C(C)CC2CCC(OCCO)C(OC)C2)CC(=O)C(C)C=C(C)C(O)C(OC)C(=O)C(C)CC(C)C=CC=CC=C1C` (configuration not stated), the viability, T/C is 108% and 127% (compound 0.000316 µM); 103% and 118% (compound 0.001 µM); 90.9% and 96.7% (compound 0.00316 µM); 88.1% and 93.2% (compound 0.01 µM); 84.9% and 77.9% (compound 0.0316 µM); 83.9% and 82.5% (compound 0.1 µM). For the same compound, the IC50 (curve of compound) was greater than 100 nM.
In the case of `COc1c(OCCCN2CCOCC2)ccc2c3n(c(=NC(=O)c4cnc(N)nc4)nc12)CCN3`, the viability, T/C (compound 0.00316 µM) is 96.6% and 99.3%; the viability, T/C (compound 0.01 µM) was 89.4% and 83.8%; the viability, T/C (compound 0.0316 µM) is 78.5% and 68.5%; the viability, T/C (compound 0.1 µM) was 63.8% and 55.3%; the viability, T/C (compound 0.316 µM) is 42.5% and 39.9%; the viability, T/C (compound 1 µM) was 34.6% and 29.2%. Further, the IC50 (curve of compound) is 220 nM and 144 nM.
Regarding `Cc1nc(NC(=O)N2CCCC2C(N)=O)sc1-c1ccnc(C(C)(C)C(F)(F)F)c1` (configuration not stated), the viability, T/C runs as follows: (compound 0.0316 µM) 102% and 105%; (compound 0.1 µM) 93.8% and 98.5%; (compound 0.316 µM) 92.2% and 85.6%; (compound 1 µM) 85.7% and 77.4%; (compound 3.16 µM) 68.3% and 65.6%; (compound 10 µM) 57.7% and 47.6%. For the same compound, the concentration for half-maximal inhibition (IC50) (curve of compound) is > 10000 nM and 9170 nM.
As for `Cn1cnc2c(F)c(Nc3ccc(Br)cc3Cl)c(C(=O)NOCCO)cc21`, the viability, T/C runs as follows: (compound 0.00949 µM) 89.7% and 95.5%; (compound 0.03 µM) 79.8% and 82.5%; (compound 0.0949 µM) 64.8% and 61.1%; (compound 0.3 µM) 55.1% and 49.1%; (compound 0.949 µM) 40.8% and 41.4%; (compound 3 µM) 33.3% and 34.5%. Besides, the IC50 (curve of compound) is 420 nM and 267 nM.

Source of the values: PubChem BioAssay AID2060346 (Molecular Pharmacology Branch, DTP, NCI, 2025).
